Assay results taken from ChEMBL document CHEMBL1153245, “A profile of the in vitro anti-tumor activity of imidazolium-based ionic liquids” (2010).

What was measured:
Assay type in all cases: functional
NCI-H23 [1] = experiment: Anticancer activity against human NCI-H23 cells assessed cell growth at 10 uM after 48 hrs by sulforhodamine B assay relative to control
SR [2] = experiment: Anticancer activity against human SR cells assessed cell growth at 10 uM after 48 hrs by sulforhodamine B assay relative to control
K562 = experiment: Anticancer activity against human K562 cells after 48 hrs by sulforhodamine B assay
COLO 205 [3] = experiment: Anticancer activity against human COLO205 cells assessed cell growth at 10 uM after 48 hrs by sulforhodamine B assay relative to control
SN12C = experiment: Anticancer activity against human SN12C cells assessed cell growth at 10 uM after 48 hrs by sulforhodamine B assay relative to control
SR [4] = experiment: Anticancer activity against human SR cells after 48 hrs by sulforhodamine B assay
OVCAR-8 = experiment: Anticancer activity against human OVCAR8 cells after 48 hrs by sulforhodamine B assay
HOP-92 = experiment: Anticancer activity against human HOP92 cells after 48 hrs by sulforhodamine B assay
PC-3 = experiment: Anticancer activity against human PC3 cells assessed cell growth at 10 uM after 48 hrs by sulforhodamine B assay relative to control
EKVX = experiment: Anticancer activity against human EKVX cells after 48 hrs by sulforhodamine B assay
MCF7 = experiment: Anticancer activity against human MCF7 cells after 48 hrs by sulforhodamine B assay
A498 = experiment: Anticancer activity against human A498 cells after 48 hrs by sulforhodamine B assay
SK-MEL-5 = experiment: Anticancer activity against human SK-MEL-5 cells after 48 hrs by sulforhodamine B assay
NCI-H23 [5] = experiment: Anticancer activity against human NCI-H23 cells after 48 hrs by sulforhodamine B assay
A549 = experiment: Anticancer activity against human A549 cells assessed cell growth at 10 uM after 48 hrs by sulforhodamine B assay relative to control
OVCAR-4 = experiment: Anticancer activity against human OVCAR4 cells after 48 hrs by sulforhodamine B assay
NCI-H226 = experiment: Anticancer activity against human NCI-H226 cells after 48 hrs by sulforhodamine B assay
SW-620 = experiment: Anticancer activity against human SW620 cells after 48 hrs by sulforhodamine B assay
UO-31 = experiment: Anticancer activity against human UO31 cells assessed cell growth at 10 uM after 48 hrs by sulforhodamine B assay relative to control
HOP-62 = experiment: Anticancer activity against human HOP62 cells after 48 hrs by sulforhodamine B assay
LOX IMVI = experiment: Anticancer activity against human LOXIMVI cells after 48 hrs by sulforhodamine B assay
SF-295 = experiment: Anticancer activity against human SF295 cells after 48 hrs by sulforhodamine B assay
MDA-MB-468 = experiment: Anticancer activity against human MDA-MB-468 cells after 48 hrs by sulforhodamine B assay
HL-60(TB) = experiment: Anticancer activity against human HL-60(TB) cells after 48 hrs by sulforhodamine B assay
SK-OV-3 [6] = experiment: Anticancer activity against human SKOV3 cells after 48 hrs by sulforhodamine B assay
NCI-H322M = experiment: Anticancer activity against human NCI-H322M cells after 48 hrs by sulforhodamine B assay
U-251 [7] = experiment: Anticancer activity against human U251 cells after 48 hrs by sulforhodamine B assay
T47D = experiment: Anticancer activity against human T47D cells after 48 hrs by sulforhodamine B assay
KM12 [8] = experiment: Anticancer activity against human KM12 cells assessed cell growth at 10 uM after 48 hrs by sulforhodamine B assay relative to control
U-251 [9] = experiment: Anticancer activity against human U251 cells assessed cell growth at 10 uM after 48 hrs by sulforhodamine B assay relative to control
OVCAR-5 = experiment: Anticancer activity against human OVCAR5 cells assessed cell growth at 10 uM after 48 hrs by sulforhodamine B assay relative to control
NCI/ADR-RES = experiment: Anticancer activity against human NCI/ADR-RES cells after 48 hrs by sulforhodamine B assay
COLO 205 [10] = experiment: Anticancer activity against human COLO205 cells after 48 hrs by sulforhodamine B assay
HT-29 = experiment: Anticancer activity against human HT-29 cells assessed cell growth at 10 uM after 48 hrs by sulforhodamine B assay relative to control
SNB-75 = experiment: Anticancer activity against human SNB75 cells after 48 hrs by sulforhodamine B assay
ACHN = experiment: Anticancer activity against human ACHN cells after 48 hrs by sulforhodamine B assay
MOLT-4 = experiment: Anticancer activity against human MOLT4 cells assessed cell growth at 10 uM after 48 hrs by sulforhodamine B assay relative to control
SK-OV-3 [11] = experiment: Anticancer activity against human SKOV3 cells assessed cell growth at 10 uM after 48 hrs by sulforhodamine B assay relative to control
SF-268 = experiment: Anticancer activity against human SF268 cells assessed cell growth at 10 uM after 48 hrs by sulforhodamine B assay relative to control
KM12 [12] = experiment: Anticancer activity against human KM12 cells after 48 hrs by sulforhodamine B assay
HCC 2998 = experiment: Anticancer activity against human HCC2998 cells after 48 hrs by sulforhodamine B assay
[13] = read-out: LC50 (the source's name)

CCCCCCCCCCCC[n+]1ccn(C)c1.F[B-](F)(F)F
Activity (NCI-H23 [1]): 23.04%
Activity (SR [2]): 100.03%
GI50 (K562): 0.363 µM
Activity (COLO 205 [3]): 15.15%
Activity (SN12C): 21.24%
GI50 (SR [4]): 1.06 µM
CC50 (SR [4]; [13]): > 100 µM
GI50 (OVCAR-8): 3.25 µM
GI50 (HOP-92): 7.84 µM
Activity (PC-3): 74.38%
GI50 (EKVX): 0.792 µM
GI50 (MCF7): 1.95 µM
GI50 (A498): 7.53 µM
GI50 (SK-MEL-5): 1.66 µM
CC50 (SK-MEL-5; [13]): 54.5 µM
GI50 (NCI-H23 [5]): 2.44 µM
Activity (A549): 37.89%
GI50 (OVCAR-4): 2.59 µM
GI50 (NCI-H226): 4.62 µM
GI50 (SW-620): 7.25 µM
Activity (UO-31): 68.16%
GI50 (HOP-62): 9.48 µM
GI50 (LOX IMVI): 1.36 µM
CC50 (LOX IMVI; [13]): 34.9 µM
GI50 (SF-295): 2.93 µM
GI50 (MDA-MB-468): 0.556 µM
GI50 (HL-60(TB)): 0.324 µM
CC50 (HL-60(TB); [13]): 9.93 µM
GI50 (SK-OV-3 [6]): 5.97 µM
GI50 (NCI-H322M): 24.6 µM
GI50 (U-251 [7]): 2.81 µM
GI50 (T47D): 4.31 µM
Activity (KM12 [8]): 21.76%
Activity (U-251 [9]): 36.74%
Activity (OVCAR-5): 48.72%
GI50 (NCI/ADR-RES): 39.7 µM
GI50 (COLO 205 [10]): 3.41 µM
Activity (HT-29): 24.82%
GI50 (SNB-75): 3.71 µM
CC50 (SNB-75; [13]): 90.3 µM
GI50 (ACHN): 10 µM
Activity (MOLT-4): 71.98%
Activity (SK-OV-3 [11]): 47.29%
Activity (SF-268): 66.79%
GI50 (KM12 [12]): 1.85 µM
CC50 (KM12 [12]; [13]): 23 µM
GI50 (HCC 2998): 4.18 µM
